Values quoted from earlier work in patent US6444681B1, “Methods and compositions for treating Raynaud's Phenomenon and scleroderma” (The Ohio State University Research Foundation, priority 2000, dated 2002).

Target: T1, α-2A (Homo sapiens, UniProt P08913)
T1 sequence (P08913 1-465): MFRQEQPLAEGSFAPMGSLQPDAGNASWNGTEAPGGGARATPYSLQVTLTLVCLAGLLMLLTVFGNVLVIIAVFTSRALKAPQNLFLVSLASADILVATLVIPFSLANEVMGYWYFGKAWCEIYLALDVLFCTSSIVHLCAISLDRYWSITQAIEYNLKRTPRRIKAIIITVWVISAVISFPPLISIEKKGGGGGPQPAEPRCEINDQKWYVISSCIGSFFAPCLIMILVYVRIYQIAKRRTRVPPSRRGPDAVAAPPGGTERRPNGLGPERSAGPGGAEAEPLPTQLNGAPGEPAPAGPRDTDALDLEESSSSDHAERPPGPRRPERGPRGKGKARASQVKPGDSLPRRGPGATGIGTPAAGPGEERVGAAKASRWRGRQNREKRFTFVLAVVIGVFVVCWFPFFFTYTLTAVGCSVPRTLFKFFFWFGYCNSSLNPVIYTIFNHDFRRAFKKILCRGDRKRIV
Conditions: cited from earlier work

SMILES: CN1CCC2(CCN3CCc4c(oc5ccccc45)C3C2)N(C)C1=O (stereo not shown) [MK 912]
- Kd: 1.8 nM
